According to US11498923B2 (Merck Sharp & Dohme Corp., priority 2017, dated 2022):

Target: T1, human A2a receptor (Homo sapiens, UniProt P29274)
T1 construct: purchased Perkin-Elmer RBHA2AM400UA; host or cells: HEK293 cells, used as a membrane preparation
Assay: A2a receptor competition binding assay (Scintillation Proximity)
Details: membranes from HEK293 cells expressing human A2a receptor; 0.5 nM tritiated ligand; Cheng-Prusoff; read-out: A2a Ki
Method: Binding affinities of compounds of the invention for the human A2a receptor were determined in a competition binding assay using Scintillation Proximity technology. Thus, 0.3 μg of membranes from HEK293 cells expressing the human A2a receptor were incubated with a compound of the invention at concentrations ranging from 3000 nM to 0.15 nM in a reaction mixture containing also 0.5 nM of a tritiated form of 5-amino-7-[2-phenethyl]-2-(furan-2-yl)-7H-pyrazolo[4,3-e][1,2,4]triazolo[1,5-c]pyrimidine (the tritiated compound) and 100 μg of wheat germ agglutin-coated yttrium silicate SPA beads for one hour at room temperature with agitation. The beads were then allowed to settle to the bottom of the wells for 1 hr, after which the membrane-associated radioactivity was determined by scintillation counting in a TopCount microplate reader. Ki values were determined using the Cheng-Prusoff equation.
Summary of Materials and Methods Used in A2a Activity Determination:
HEK293 cells expressing the human, rat, dog or monkey adenosine 2a receptor (Purchased from Perkin-Elmer #RBHA2AM400UA).
The Tritiated compound was prepared according to published methods.
Wheat germ agglutinin-coated yttrium silicate SPA beads (GE Healthcare #RPNQ0023). Dilute to 25 mg/ml in assay buffer.
Assay Buffer was prepared using Dulbecco's calcium and magnesium free phosphate buffered saline+10 mMMgCl2
Adenosine deaminase from calf intestine, 10 mg/2 ml (Roche #10 102 105 001).
A2a antagonist standard (9-chloro-1-(2-furanyl)-[1,2,4]triazolo1,5-c]quinazolin-5-amine from Tocris Bioscience)
Make eight 1:3 serial dilutions in 100% DMSO from a 3 mM compound stock
Transfer 50 nl of compound into a 384-well OptiPlate (Perkin Elmer).
Typically, final concentrations of compound used in the assay ranged from 3000 nM to 0.152 nM.
Dilute a solution of the Tritiated compound to 1.25 nM in assay buffer. This is a 2.5× solution. The final concentration in the assay is 0.5 nM. Calculate the concentration by counting two 5 μl aliquots.
Use 0.25 ug of membrane/well. Dilute membranes to 9.7 μg/ml in assay buffer. Treat with 20 ug/ml adenosine deaminase (ADA) for 15 minutes at room temperature to degrade endogenous adenosine.
Use 100 μg/well wheat germ agglutinin-coated yttrium silicate SPA beads.
Mix ADA-treated membranes and SPA beads together for 30 min prior to assay.
To the Perkin-Elmer Optiplate-384 containing the compound titration add 20 μl of 2.5× solution of the Tritiated compound and 30 μl of the membrane-bead mixture. Incubate for one hour at room temperature with agitation.
Include total binding (assay buffer+1% DMSO) and non-specific binding (CGS15943, 1 μM) wells.
Allow the beads to settle for one hour.
A curve fitting program (i.e., Prism, Activity Base, Chemcart) is used to determine the EC50. The Ki value is calculated using the Cheng-Prusoff equation. Ki=EC50/(1+(radioligand concentration/Kd))

T1 sequence (P29274 whole entry): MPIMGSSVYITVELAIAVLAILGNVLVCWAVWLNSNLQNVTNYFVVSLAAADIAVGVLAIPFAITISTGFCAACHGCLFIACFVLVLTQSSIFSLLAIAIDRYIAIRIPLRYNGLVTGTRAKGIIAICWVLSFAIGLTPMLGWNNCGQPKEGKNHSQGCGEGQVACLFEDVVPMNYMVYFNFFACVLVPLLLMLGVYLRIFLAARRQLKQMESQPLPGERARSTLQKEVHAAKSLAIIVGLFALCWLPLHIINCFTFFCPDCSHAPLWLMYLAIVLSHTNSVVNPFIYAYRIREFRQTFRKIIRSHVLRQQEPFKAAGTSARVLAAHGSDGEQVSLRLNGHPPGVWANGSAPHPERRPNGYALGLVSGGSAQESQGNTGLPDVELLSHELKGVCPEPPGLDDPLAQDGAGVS

Row | SMILES | Ki [nM]
1 | Nc1nc2ccccc2c2nc(Cc3ccccc3C(F)(F)F)cn12 [Ex-14, 2-(2-(trifluoromethyl)benzyl)imidazo[1,2-c]quinazolin-5-amine] | 2.3
2 | COc1cccc2c1nc(N)n1cc(C(=O)N3CC[C@H](OC)C3)nc21 [Ex-212, (S)-(5-amino-7-methoxyimidazo[1,2-c]quinazolin-2-yl)(3-methoxypyrrolidin-1-yl)methanone] | 5.5
3 | COc1cccc2c1nc(N)n1cc(CCN3Cc4cccnc4C3)nc21 [Ex-137, 2-(2-(5,7-dihydro-6H-pyrrolo[3,4-b]pyridin-6-yl)ethyl)-7-methoxyimidazo[1,2-c]quinazolin-5-amine] | 13.1
4 | Cc1noc(C)c1-c1cccc2c1nc(N)n1cc(CNCc3ccccc3)nc21 [Ex-153, 2-((benzylamino)-methyl)-7-(3,5-dimethyl-isoxazol-4-yl)-imidazo[1,2-c]-quinazolin-5-amine] | > 2200
5 | COc1cccc2c1nc(N)n1cc(C(=O)N3CCCC4(C3)OCCO4)nc21 [Ex-231, (5-amino-7-methoxyimidazo[1,2-c]quinazolin-2-yl)(1,4-dioxa-7-azaspiro[4.5]decan-7-yl)methanone] | 10
6 | COc1cccc2c1nc(N)n1cc(Cc3ccnc(N4CCOCC4)c3)nc21 [Ex-40, 7-methoxy-2-((2-morpholinopyridin-4-yl)methyl)imidazo[1,2-c]quinazolin-5-amine] | 10
7 | COc1cccc2c1nc(N)n1cc(Cc3ccc(N4CCOCC4)nc3)nc21 [Ex-39, 7-methoxy-2-((6-morpholinopyridin-3-yl)methyl)imidazo[1,2-c]quinazolin-5-amine] | 9.8
8 | COc1ccc(CNc2nc3c(F)cccc3c3nc(C(=O)N4Cc5ccc(Br)cc5C4)cn23)c(OC)c1 [Ex-164, (5-bromoisoindolin-2-yl)(5-((2,4-dimethoxybenzyl)amino)-7-fluoroimidazo[1,2-c]quinazolin-2-yl)methanone] | > 2200
9 | Nc1nc2c(F)cccc2c2nc(CC3CCN(c4ccc(F)cn4)CC3)cn12 [Ex-319, 5-amino-7-fluoro-2-((1-(5-fluoropyridin-2-yl)piperidin-4-yl)-methyl)imidazo[1,2-c]quinazolin-6-ium 2,2,2-trifluoroacetate] | 31
10 | COc1cccc2c1nc(N)n1cc(Cc3cccnc3-c3cncnc3)nc21 [Ex-80, 7-methoxy-2-((2-(pyrimidin-5-yl)pyridin-3-yl)methyl)imidazo[1,2-c]quinazolin-5-amine] | 11
11 | COc1cccc2c1nc(N)n1cc(C(=O)N3CCCC(F)(F)C3)nc21 [Ex-172, (5-amino-7-methoxyimidazo[1,2-c]quinazolin-2-yl)(3,3-difluoropiperidin-1-yl)methanone] | 18
12 | CC(=O)N1CCCC2(CCN(C(=O)c3cn4c(N)nc5c(F)cccc5c4n3)CC2)C1 [Ex-278, 1-(9-(5-amino-7-fluoroimidazo[1,2-c]quinazoline-2-carbonyl)-2,9-diazaspiro[5.5]undecan-2-yl)ethan-1-one] | 61
13 | COc1cccc2c1nc(N)n1cc(C(=O)N3CC4CC3CS(=O)(=O)C4)nc21 (stereo not drawn) [Ex-237, (5-amino-7-methoxyimidazo[1,2-c]quinazolin-2-yl)(3,3-dioxido-3-thia-6-azabicyclo[3.2.1]octan-6-yl)methanone] | 37
14 | Nc1nc2ccccc2c2nc(C(=O)NCc3ccc(F)cc3F)cn12 [Ex-158, 5-amino-N-(2,4-difluorobenzyl)imidazo[1,2-c]quinazoline-2-carboxamide] | 33.9
15 | Nc1nc2c(F)cccc2c2nc(C(=O)NCc3cccc(Br)n3)cn12 [Ex-294, 5-amino-N-((6-bromopyridin-2-yl)methyl)-7-fluoroimidazo[1,2-c]quinazoline-2-carboxamide] | 5.3
16 | COc1cccc2c1nc(N)n1cc(C(=O)N3CCC[C@H]3CF)nc21 [Ex-219, (S)-(5-amino-7-methoxyimidazo[1,2-c]quinazolin-2-yl)(2-(fluoromethyl)pyrrolidin-1-yl)methanone] | 3.6
17 | COc1cccc2c1nc(N)n1cc(CCc3ccccc3)nc21 [Ex-102, 7-methoxy-2-phenethylimidazo[1,2-c]quinazolin-5-amine] | 3.8
18 | Nc1nc2c(F)cccc2c2nc(C(=O)NCC(c3cccnc3)N3CCOCC3)cn12 (stereo not drawn) [Ex-166, 5-amino-7-fluoro-N-(2-morpholino-2-(pyridin-3-yl)ethyl)imidazo[1,2-c]quinazoline-2-carboxamide] | 1400
19 | Nc1nc2ccccc2c2nc(-c3cccc(Br)c3)cn12 [Ex-105, 2-(3-bromophenyl)imidazo[1,2-c]quinazolin-5-amine] | 160
20 | Nc1nc2c(F)cccc2c2nc(CC3CCNCC3)cn12 [Ex-303, 7-fluoro-2-(piperidin-4-ylmethyl)imidazo-[1,2-c]quinazolin-5-amine] | 170

Continued, values first:

Row | Ki [nM] | SMILES
21 | 64 | Nc1nc2c(F)cccc2c2nc(CN3CCc4cc(NC(=O)c5ccccn5)ccc4C3)cn12 [Ex-127, N-(2-((5-amino-7-fluoroimidazo[1,2-c]quinazolin-2-yl)methyl)-1,2,3,4-tetrahydroisoquinolin-6-yl)picolinamide]
22 | 2.5 | CC(=O)N1CCN(c2ccccc2CNC(=O)c2cn3c(N)nc4c(F)cccc4c3n2)CC1 [Ex-264, N-(2-(4-acetylpiperazin-1-yl)benzyl)-5-amino-7-fluoroimidazo[1,2-c]quinazoline-2-carboxamide]
23 | 54 | COc1cccc(C(=O)N2CCC(Cc3cn4c(N)nc5c(F)cccc5c4n3)CC2)n1 [Ex-325, (4-((5-amino-7-fluoroimidazo[1,2-c]-quinazolin-2-yl)-methyl)piperidin-1-yl)(6-methoxypyridin-2-yl)methanone]
24 | 3.7 | COc1cccc2c1nc(N)n1cc(CN3CCc4ccccc4C3)nc21 [Ex-121, 2-((3,4-dihydroisoquinolin-2(1H)-yl)methyl)-7-methoxyimidazo[1,2-c]quinazolin-5-amine]
25 | 3.6 | Nc1nc2c(F)cccc2c2nc(C(=O)NCc3cccc(N4CCOCC4)c3)cn12 [Ex-257, 5-amino-7-fluoro-N-(3-morpholino-benzyl)imidazo-[1,2-c]-quinazoline-2-carboxamide]
26 | 51 | Nc1nc2c(F)cccc2c2nc(CN3CCc4cc(CC(=O)Nc5ccccn5)ccc4C3)cn12 [Ex-129, 2-(2-((5-amino-7-fluoroimidazo[1,2-c]quinazolin-2-yl)methyl)-1,2,3,4-tetrahydroisoquinolin-6-yl)-N-(pyridin-2-yl)acetamide]
27 | 44 | Cc1cccc(C(=O)N2CCC(Cc3cn4c(N)nc5c(F)cccc5c4n3)CC2)n1 [Ex-324, (4-((5-amino-7-fluoroimidazo[1,2-c]quinazolin-2-yl)-methyl)piperidin-1-yl)(6-methylpyridin-2-yl)methanone]
28 | 130 | Nc1nc2c(F)cccc2c2nc(CN3CCC(Cc4ccccc4)CC3)cn12 [Ex-114, 2-((4-benzylpiperidin-1-yl)methyl)-7-fluoroimidazo[1,2-c]quinazolin-5-amine]
29 | 12 | Nc1nc2c(F)cccc2c2nc(CN3CCN(C(=O)Cc4ccccn4)c4ccccc43)cn12 [Ex-136, 1-(4-((5-amino-7-fluoroimidazo[1,2-c]quinazolin-2-yl)methyl)-3,4-dihydroquinoxalin-1(2H)-yl)-2-(pyridin-2-yl)ethan-1-one]
30 | 2.2 | COc1cccc2c1nc(N)n1cc(Cc3cccnc3N3CCC(c4ccccc4)CC3)nc21 [Ex-62, 7-methoxy-2-((2-(4-phenylpiperidin-1-yl)pyridin-3-yl)methyl)imidazo[1,2-c]quinazolin-5-amine]
31 | 2.6 | Nc1nc2c(F)cccc2c2nc(Cc3ccccc3-c3ccccc3)cn12 [Ex-27, 2-([1,1′-biphenyl]-2-ylmethyl)-7-fluoroimidazo[1,2-c]quinazolin-5-amine]
32 | 130 | CS(=O)(=O)Nc1nc2c(F)cccc2c2nc(-c3ccccc3CN3CCN(c4ccccn4)CC3)cn12 [Ex-108, N-(7-fluoro-2-(2-((4-(pyridin-2-yl)piperazin-1-yl)methyl)-phenyl)-imidazo[1,2-c]-quinazolin-5-yl)-methanesulfonamide]
33 | 40 | Nc1nc2c(F)cccc2c2nc(Cc3ccc(C(=O)NC4(c5ccccc5)CC4)cc3)cn12 [Ex-87, 4-((5-amino-7-fluoroimidazo[1,2-c]quinazolin-2-yl)methyl)-N-(1-phenylcyclopropyl)benzamide]
